{"source": "patent US6372768B1", "about": "“2-aminopyridines containing fused ring substituents” (Pfizer INC, priority 1999, dated 2002)", "note": "Counter-ions that a name gives are not always drawn."}
{"smiles": "Nc1cccc(-c2ccc(OCCO)c3c2CCCC3)n1", "note": "(as salt: hydrochloride) [Example 2, 6-[4-(2-Hydroxy-ethoxy)-5,6,7,8-tetrahydro-naphthalen-1-yl]-pyridin-2-ylamine]", "values": [{"measurement": "melting point", "value": "170 to 172", "unit": "°C"}]}
{"smiles": "CN(C)CCOCCOc1ccc(-c2cccc(N)n2)c2ccccc12", "note": "(as salt: hydrochloride) [Example 3, 6-[4-(2-(2-Dimethylaminoethoxy)-ethoxy)-naphthalen-1-yl]-pyridin-2-ylamine]", "values": [{"measurement": "melting point", "value": "60 to 75 °C (dec.)"}]}
